Measurements from US20170307610A1, “COMPOUNDS THAT BIND DYSTROGLYCAN AND USES THEREOF” (OREGON HEALTH & SCIENCE UNIVERSITY, priority 2014, published 2017).

Experiments:
Assay type in all cases: cell-based, mouse
[1] = tested on: E3D1cre19 MECs (β1 Int−/− or β1 Int+); assay: Laminin internalization in β1 integrin-deleted or re-expressing cells, flow cytometry
Source text: The integrin family of ECM receptors is expressed in the DG−/− cell population (MepG-vec and MepL-vec cell lines, FIG. 11A), but are apparently unable to mediate significant laminin internalization alone (FIG. 7B). To directly test the role of integrins in laminin internalization, an MEC cell line containing an engineered β1 integrin (β1 int) deletion, E3D1cre19 (β1 Intl−/−) was used (cre19-vec, FIG. 11A, see Example 10 infra). These β1 int−/− cells were infected with the empty vector retrovirus or with a WT β1 int expressing retrovirus. The re-expression of WT β1 integrin in β1 int−/− cells produced a modest but statistically insignificant change ([…]) in laminin internalization (MFI β1 Intl−=21.4±3; β1 Int+=26.8±1.2; n=6, p=0.17) (FIG. 7D). […] Therefore, although the β1 integrins are not required for the majority laminin internalization, they can enhance it, possibly as co-receptors with DG (Leonoudakis D et al, 2010 supra; Weir M L et al, 2006 supra).
(§1) Cell culture—Primary mammary epithelial cells from control or ΔDGK14-Cre mid-pregnant mice were obtained as previously described (Weir et al, 2006 supra). DG-knockout (MEpG and MEpL cells), and WT E3D1 mammary epithelial cells were established as described previously (Weir et al, 2006 supra) from floxed-DG mice. β1 int-knockout (E3D1 cre19) MECs were established from floxed -β1 int primary MECS, as above. MECs were grown in DME/F12, 2% FBS, 10 μg/ml insulin and 5 ng/ml EGF (BD Biosciences, San Jose, Calif., USA). […] These cultures produced >95% astrocytes as determined by staining with GFAP astrocyte marker antibody.
(§2) Flow Cytometry—Cells were plated in 12 well plates at 200,000 cells/well. […] Using a BD FACScan flow cytometer (BD Biosciences, San Jose, Calif., USA), 10,000 cells/well were counted, background fluorescence from the cell counts with no added laminin subtracted and the mean fluorescence intensity values reported. […]

MEpG MECs (DG−/− or DG+) = assay: Laminin internalization in dystroglycan-deleted or re-expressing cells, flow cytometry; conditions: n=6
Source text: Genetic manipulation of laminin receptor expression was employed in order to identify the specific receptor(s) mediating laminin internalization. […] To test the role of DG in laminin internalization, an MEC cell line containing an engineered dystroglycan deletion (MEpG) was used (Weir M L et al, 2006 supra). The MEpG cell line was infected with retroviral empty vector (creating control DG−/− cells) or retrovirus expressing DG (creating DG+ cells). Immunoblotting confirmed the expected presence or absence of DG expression in these cell types (FIG. 11A). […] The compiled mean fluorescence intensity (MFI) data of cells expressing DG was nearly four-fold higher than cells lacking DG expression (DG+=18.04±4.6; DG−/−=4.84±1.43, n=6, FIG. 7C). Therefore, the majority of laminin internalization observed in functionally normal mammary epithelial cells appeared to depend on dystroglycan function.
as §1, with “USA). Human DG, β1 int, or wedge β1 int genes (Luo B H et al, Proc Natl Acad Sci USA 102, 3679-3684 (2005); incorporated by reference herein) were cloned into the retroviral expression vector, pBMN-IRES-PURO as described previously (Weir et al, 2006 supra) and verified by sequencing.” for “USA).”
as §2

E3D1 MECs = assay: Pulsed time course of Rhod-Ln internalization, flow cytometry
Method: To explore the dynamics of laminin internalization, steady-state time course experiments (measuring internalization in the continuous presence of labeled laminin) and pulsed time course experiments were performed. In pulsed time course experiments, the cells were exposed to exogenous Rhod-Ln at 4° C. to prevent internalization, excess unbound Rhod-Ln was washed away, and then cells were returned to 37° C. to allow synchronized internalization and trafficking to proceed. […] Following pulsed and synchronized laminin exposure, Rhod-Ln was again observed to internalize within 1 hour, but reached a maximum at 8 hours, after which the levels of internal laminin declined (FIG. 4A). After 24 hours, internal Rhod-Ln levels declined to ˜37% of the maxima, indicating degradation (MFI: 315±3.5 to 119±11.5). To determine if laminin was degraded using classical degradation pathways, pulsed time course experiments in the presence of leupeptin (lysosome inhibitor) or […] (proteasome inhibitor) were performed.
Laminin labeling—Laminin-111 (1 mg) (Sigma-Aldrich Corp., St. Louis, Mo., USA) was dialyzed twice overnight against 500 ml of PBS with 10 μM CaCl2. The dialyzed laminin was then reacted with 10 μg NHS-rhodamine, or a 50 fold molar excess of NHS409 CypHer5 (GE) for 2 hr on ice, followed by dialysis twice overnight against 500 ml of PBS with 10 μM CaCl2.
Flow Cytometry—Cells were plated in 12 well plates at 200,000 cells/well. The following day, media was changed to serum-free media with or without 10 μg/ml rhodamine laminin or 40 μg/ml FITC-dextran (500S-Sigma-Aldrich Corp., St. Louis, Mo., USA). Unless otherwise indicated, cells were incubated 18-24 hrs, washed once with PBS, and cells trypsinized. Cells were washed in 5 ml cold PBS/1 mM EDTA, pelleted, and resuspended in 1 ml PBS/1 mM EDTA. Using a BD FACScan flow cytometer (BD Biosciences, San Jose, Calif., USA), 10,000 cells/well were counted, background fluorescence from the cell counts with no added laminin subtracted and the mean fluorescence intensity values reported. Graphed data are compiled from duplicate wells from each experiment with a minimum of three separate experiments, unless indicated otherwise.

In the case of “Rhod-Ln: laminin-111 labeled with NHS-rhodamine; dystroglycan binding reagent”, the “MFI of internalized laminin, β1 Int+ cells” value ([1]; WT β1 integrin re-expressed, n=6) is reported as 26.8±1.2, the “MFI of internalized laminin, β1 Int−/− cells” value ([1]; empty vector, n=6) is reported as 21.4±3 and the “increase in laminin internalization on re-expression of WT β1 integrin” value ([1]; statistically insignificant, p=0.17) is reported as 20%. The “MFI of internalized laminin, DG+ cells” value (MEpG MECs (DG−/− or DG+); cells expressing DG, 18 hours) was 18.04±4.6, the “MFI of internalized laminin, DG−/− cells” value (MEpG MECs (DG−/− or DG+); cells lacking DG, 18 hours) was 4.84±1.43 and the “more laminin internalized by DG+ MECs than DG−/− MECs” value (MEpG MECs (DG−/− or DG+); compiled MFI) was 380%. The “time at which Rhod-Ln was observed to internalize” value (E3D1 MECs; pulsed and synchronized laminin exposure, 4° C. then 37° C.) was ≤ 1 h, the “time of maximum internal laminin” value (E3D1 MECs; pulsed laminin exposure) was 8 h and the “MFI of internal Rhod-Ln after 24 hours” value (E3D1 MECs; pulsed, 24 hours) was 119±11.5. For the same substance, the “internal Rhod-Ln level relative to the maxima” value (E3D1 MECs; pulsed, after 24 hours) was ~37% and the “MFI of internal Rhod-Ln at the maximum” value (E3D1 MECs; pulsed, maximum (8 hours)) was 315±3.5.
